Assay results from patent publication US12274774B2, “Cosmetic composition derived from natural products for improving skin health” (SEOUL NATIONAL UNIVERSITY R&DB FOUNDATION, priority 2021, dated 2025).

Columns and labels:
[1] = system: Human-derived normal fibroblasts; assay: Cell proliferation efficacy (MTT method); assay type: cell-based; settings: 10 μM, 72 hours culture, FIG. 1
Procedure: • 1) Human-derived normal fibroblasts were cultured. • 2) The cells were inoculated in an appropriate number, and after 24 hours, starvation was performed for 24 hours. • 3) The cells were cultured for 72 hours in media treated with samples at different concentrations, respectively. • 4) Cell activity was measured and analyzed by the MTT method.

[2] = Antioxidant efficacy (DPPH assay); assay type: biochemical; settings: 1 μM to 50 μM, absorbance at 517 nm, FIG. 2
Procedure: • 1) 115 μL of 70% ethanol was dispensed to each of 96 wells. • 2) 5 μL of each sample and positive control was dispensed, and the absorbance was measured at 517 nm to measure the absorbance before the reaction. • 3) 80 μL of a DPPH solution was dispensed. • 4) After the reaction, the absorbance was measured at 517 nm, and the result was analyzed by using the absorbance values before and after the reaction.

[3] = system: B16F10 cells; assay: Whitening efficacy: inhibition of B16F10 intracellular melanin synthesis; assay type: cell-based; settings: 10 μM to 50 μM, α-MSH treated B16F10 cells, 72 hours, FIG. 3
Procedure: • 1) B16F10 cells were cultured. • 2) The cells were inoculated in an appropriate number, and after 24 hours, all groups except blank were treated with α-MSH and samples, respectively. • 3) The cells were cultured for 72 hours in culture media treated with respective samples. • 4) The cells were lysed, the supernatant was separated, and the absorbance value of the supernatant was measured. • 5) The amount of protein in each supernatant was measured and analyzed by the BCA method. • 6) The melanin synthesis value measured in the supernatant was corrected into the amount of protein to calculate the amount of melanin synthesis per unit cell.

[4] = system: B16F10 cells; assay: Whitening efficacy: inhibition of B16F10 extracellular melanin synthesis; assay type: cell-based; settings: 10 μM to 50 μM, α-MSH treated B16F10 cells, 72 hours, culture media, FIG. 4
Procedure: • 1) B16F10 cells were cultured. • 2) The cells were inoculated in an appropriate number, and after 24 hours, all groups except blank were treated with α-MSH and samples, respectively. • 3) The cells were cultured for 72 hours in culture media treated with respective samples. • 4) The absorbance values of the cell culture media were measured. • 5) The cells were lysed, the supernatant was separated, and the amount of protein was measured by the BCA method to correct the amount of melanin synthesis. • 6) The measured melanin synthesis value was corrected into the amount of protein to calculate the amount of melanin synthesis per unit cell.

[5] = target: T1, tyrosinase (melanin synthase) (Homo sapiens, UniProt P14679); assay: Whitening efficacy: inhibition of tyrosinase activity in pigment cells; assay type: cell-based; settings: 1 μM to 50 μM, human-derived normal pigment cells, 72 hours, FIG. 5
T1 construct: The cells were lysed, the supernatant was separated; endogenous in cells; host or cells: human-derived normal pigment cells
T1 sequence (P14679 19-529): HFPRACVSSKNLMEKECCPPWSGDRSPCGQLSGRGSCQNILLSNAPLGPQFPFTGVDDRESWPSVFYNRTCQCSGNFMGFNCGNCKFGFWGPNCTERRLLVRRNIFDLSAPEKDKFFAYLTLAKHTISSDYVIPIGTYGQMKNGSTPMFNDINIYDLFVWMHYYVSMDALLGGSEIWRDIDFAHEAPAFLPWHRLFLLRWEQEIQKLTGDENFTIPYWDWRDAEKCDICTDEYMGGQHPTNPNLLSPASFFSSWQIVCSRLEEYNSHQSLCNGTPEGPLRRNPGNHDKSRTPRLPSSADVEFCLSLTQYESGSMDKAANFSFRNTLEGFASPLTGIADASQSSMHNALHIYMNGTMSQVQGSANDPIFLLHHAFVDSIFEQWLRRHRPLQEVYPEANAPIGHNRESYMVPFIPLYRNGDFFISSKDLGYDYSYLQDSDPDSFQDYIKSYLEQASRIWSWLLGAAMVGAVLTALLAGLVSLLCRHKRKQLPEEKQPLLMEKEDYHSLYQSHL
Procedure: • 1) Human-derived normal pigment cells were inoculated in an appropriate number and cultured for 1 day. • 2) The culture medium was replaced with culture media treated with respective samples and cultured for 72 hours. • 3) The cells were lysed, the supernatant was separated, and the absorbance value of the supernatant was measured at 475 nm at 30 minute intervals while the supernatant was allowed to react with dopa, a reactant, at 37° C. • 4) The amount of protein in the cell lysis supernatant was measured by the BCA method to correct a tyrosinase (melanin synthase) measurement value.

[6] = system: Human-derived normal fibroblasts; assay: Wrinkle improvement efficacy (collagen synthesis); assay type: cell-based; settings: 10 μM to 20 μM, UV-irradiated fibroblasts, FIG. 6
Procedure: • 1) Human-derived normal fibroblasts were inoculated at 2×10^5/6 well and cultured. • 2) Culture was performed for 1 day under starvation conditions. • 3) The cells were treated with samples at different concentrations, respectively, and cultured for 24 hours. • 4) The cells were washed and then irradiated with UV, followed by culture for 48 hours. • 5) The amount of collagen expression in the cell culture medium was measured and analyzed.

[7] = system: Propionibacterium acnes; assay: Anti-acne efficacy (antibacterial efficacy); assay type: cell-based; settings: 20 μM to 200 μM, 72 hours anaerobic culture, FIG. 7
Procedure: • 1) Propionibacterium acnes, anaerobic acne bacteria, were cultured under anaerobic culture conditions. • 2) The strain was prepared by adjusting the turbidity to McFarland standard NO. 1, followed by dilution of 1/20 in a liquid culture medium. • 3) Liquid nutrient media were treated with samples at different concentrations, respectively. • 4) After 100 μL of each of the liquid nutrient media treated with the samples was dispensed, 10 μL of the prepared strain was inoculated to each medium. • 5) After the strain was cultured for 72 hours under anaerobic culture conditions, the number of bacteria was measured and analyzed.

[8] = Measurement of absorbance (spectrophotometer); assay type: physicochemical; settings: 10 μM to 50 μM in organic solvent; UV-A (320 nm to 400 nm), UV-B (280 nm to 320 nm), UV-C (200 nm to 280 nm), FIG. 8
Procedure: • 1) Resveratrone was dissolved in an organic solvent at a concentration of 10 μM to 50 μM. • 2) The absorbance of resveratrone was measured by using a spectrophotometer.

CC(=O)/C=C/c1ccc2cc(O)cc(O)c2c1 [resveratrone, Resveratrone]
increase in number of cells [1]: 20% | radical scavenging ability [2]: radical scavenging ability was confirmed | inhibition of intracellular melanin synthesis [3]: inhibition of melanin synthesis was confirmed | inhibition of extracellular melanin synthesis [4]: inhibition of melanin synthesis was confirmed | inhibition of tyrosinase activity [5]: inhibition of tyrosinase activity was confirmed | increase in collagen synthesis [6]: increase in collagen synthesis was confirmed | inhibition of bacterial growth [7]: inhibition of bacterial growth was confirmed | UV absorption [8]: absorption was confirmed in all UV regions
